Experiments:
Type in all cases: in vivo
Conditions in all cases: 250 g/h, evaluated after 13 days
[1] = test system: Alopecurus myosuroides (ALOMY); test: Pre-emergence herbicidal glasshouse test, percentage damage
Procedure, shortened: (§1)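 Spray solution: acetone/water (50:50), 0.5% Tween 20, applied at 250 g/h. Timing: 1 d (pre-emergence) or 8 d (post-emergence) after sowing. Readout: % plant damage at 13 d, banded 1–5.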

[2] = test system: Avena fatua (AVEFA); test: as above
Procedure, shortened: as §1

[3] = test system: Echinochloa crus-galli (ECHCG); test: as above
Procedure, shortened: as §1

[4] = test system: Lolium perenne (LOLPE); test: as above
Procedure, shortened: as §1

[5] = test system: Setaria faberi (SETFA); test: as above
Procedure, shortened: as §1

[6] = test system: Setaria faberi (SETFA); test: Post-emergence herbicidal glasshouse test, percentage damage
Procedure, shortened: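 Wheat, barley and Setaria faberi were sprayed post-emergence after 8 days' growth (24/16 °C, 14 h light, 65% humidity) with compound in acetone/water (50:50) containing 0.5% Tween 20, at the indicated rates. On wheat, compounds were also applied with cloquintocet-mexyl at 50 g/ha. Damage was scored after 13 days on a five-point scale (5=80-100% to 1=0-19%).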

[7] = test system: Alopecurus myosuroides (ALOMY); test: as above
Procedure, shortened: as §1

[8] = test system: Avena fatua (AVEFA); test: as above
Procedure, shortened: as §1

[9] = test system: Echinochloa crus-galli (ECHCG); test: as above
Procedure, shortened: as §1

[10] = test system: Lolium perenne (LOLPE); test: as above
Procedure, shortened: as §1

CC#Cc1cc(C)c(C2C(=O)CC3(CCN(C(=O)NC(C)=O)CC3)CC2=O)c(C)c1 [Compound A71]
5 (5=80-100%): ALOMY PRE percentage damage (five point scale) [1] | AVEFA PRE percentage damage (five point scale) [2] | ECHCG PRE percentage damage (five point scale) [3] | LOLPE PRE percentage damage (five point scale) [4] | SETFA PRE percentage damage (five point scale) [5] | SETFA POST percentage damage (five point scale) [6] | ALOMY POST percentage damage (five point scale) [7] | AVEFA POST percentage damage (five point scale) [8] | ECHCG POST percentage damage (five point scale) [9] | LOLPE POST percentage damage (five point scale) [10]

CC#Cc1cc(C)c(C2C(=O)CC3(CCN(S(=O)(=O)CC)CC3)CC2=O)c(OC)c1 [Compound A72]
5 (5=80-100%): ALOMY PRE percentage damage (five point scale) [1] | AVEFA PRE percentage damage (five point scale) [2] | ECHCG PRE percentage damage (five point scale) [3] | LOLPE PRE percentage damage (five point scale) [4] | SETFA PRE percentage damage (five point scale) [5] | SETFA POST percentage damage (five point scale) [6] | ALOMY POST percentage damage (five point scale) [7] | AVEFA POST percentage damage (five point scale) [8] | ECHCG POST percentage damage (five point scale) [9] | LOLPE POST percentage damage (five point scale) [10]

CC#Cc1cc(C)c(C2C(=O)CC3(CCN(C(=O)c4ccccc4)CC3)CC2=O)c(OC)c1 [Compound A73]
5 (5=80-100%): ALOMY PRE percentage damage (five point scale) [1] | AVEFA PRE percentage damage (five point scale) [2] | ECHCG PRE percentage damage (five point scale) [3] | LOLPE PRE percentage damage (five point scale) [4] | SETFA PRE percentage damage (five point scale) [5] | SETFA POST percentage damage (five point scale) [6] | ALOMY POST percentage damage (five point scale) [7] | AVEFA POST percentage damage (five point scale) [8] | ECHCG POST percentage damage (five point scale) [9] | LOLPE POST percentage damage (five point scale) [10]

CC#Cc1cc(C)c(C2C(=O)CC3(CCN(C(=O)c4ccccn4)CC3)CC2=O)c(OC)c1 [Compound A74]
5 (5=80-100%): ALOMY PRE percentage damage (five point scale) [1] | AVEFA PRE percentage damage (five point scale) [2] | ECHCG PRE percentage damage (five point scale) [3] | LOLPE PRE percentage damage (five point scale) [4] | SETFA PRE percentage damage (five point scale) [5] | SETFA POST percentage damage (five point scale) [6] | ALOMY POST percentage damage (five point scale) [7] | AVEFA POST percentage damage (five point scale) [8] | ECHCG POST percentage damage (five point scale) [9] | LOLPE POST percentage damage (five point scale) [10]

CC#Cc1cc(C)c(C2C(=O)CC3(CCN(C(=O)COC)CC3)CC2=O)c(OC)c1 [Compound A75]
5 (5=80-100%): ALOMY PRE percentage damage (five point scale) [1] | AVEFA PRE percentage damage (five point scale) [2] | ECHCG PRE percentage damage (five point scale) [3] | LOLPE PRE percentage damage (five point scale) [4] | SETFA PRE percentage damage (five point scale) [5] | SETFA POST percentage damage (five point scale) [6] | ALOMY POST percentage damage (five point scale) [7] | AVEFA POST percentage damage (five point scale) [8] | ECHCG POST percentage damage (five point scale) [9] | LOLPE POST percentage damage (five point scale) [10]

CC#Cc1cc(C)c(C2C(=O)CC3(CCN(C(=O)NC(C)(C)C)CC3)CC2=O)c(OC)c1 [Compound A76]
5 (5=80-100%): ALOMY PRE percentage damage (five point scale) [1] | AVEFA PRE percentage damage (five point scale) [2] | ECHCG PRE percentage damage (five point scale) [3] | LOLPE PRE percentage damage (five point scale) [4] | SETFA PRE percentage damage (five point scale) [5] | SETFA POST percentage damage (five point scale) [6] | ALOMY POST percentage damage (five point scale) [7] | AVEFA POST percentage damage (five point scale) [8] | ECHCG POST percentage damage (five point scale) [9] | LOLPE POST percentage damage (five point scale) [10]

CC#Cc1cc(C)c(C2C(=O)CC3(CCN(C(=O)NC(=O)C(C)(C)C)CC3)CC2=O)c(OC)c1 [Compound A77]
5 (5=80-100%): ALOMY PRE percentage damage (five point scale) [1] | AVEFA PRE percentage damage (five point scale) [2] | ECHCG PRE percentage damage (five point scale) [3] | LOLPE PRE percentage damage (five point scale) [4] | SETFA PRE percentage damage (five point scale) [5] | SETFA POST percentage damage (five point scale) [6] | ALOMY POST percentage damage (five point scale) [7] | AVEFA POST percentage damage (five point scale) [8] | ECHCG POST percentage damage (five point scale) [9] | LOLPE POST percentage damage (five point scale) [10]

CC#Cc1cc(C)c(C2C(=O)CC3(CCN(C(=O)C4CC4)CC3)CC2=O)c(OC)c1 [Compound A78]
5 (5=80-100%): ALOMY PRE percentage damage (five point scale) [1] | AVEFA PRE percentage damage (five point scale) [2] | ECHCG PRE percentage damage (five point scale) [3] | LOLPE PRE percentage damage (five point scale) [4] | SETFA PRE percentage damage (five point scale) [5] | SETFA POST percentage damage (five point scale) [6] | ALOMY POST percentage damage (five point scale) [7] | AVEFA POST percentage damage (five point scale) [8] | ECHCG POST percentage damage (five point scale) [9] | LOLPE POST percentage damage (five point scale) [10]

CC#Cc1cc(C)c(C2C(=O)CC3(CCN(C(=O)CC#N)CC3)CC2=O)c(OC)c1 [Compound A80]
5 (5=80-100%): ALOMY PRE percentage damage (five point scale) [1] | AVEFA PRE percentage damage (five point scale) [2] | ECHCG PRE percentage damage (five point scale) [3] | LOLPE PRE percentage damage (five point scale) [4] | SETFA PRE percentage damage (five point scale) [5] | SETFA POST percentage damage (five point scale) [6] | ALOMY POST percentage damage (five point scale) [7] | AVEFA POST percentage damage (five point scale) [8] | ECHCG POST percentage damage (five point scale) [9] | LOLPE POST percentage damage (five point scale) [10]

Source: patent US12043599B2, “Herbicidal compounds” (SYNGENTA PARTICIPATIONS AG, priority 2018, dated 2024)
